{"source": "patent US9682928B2", "about": "(NeuroPro Therapeutics, Inc., priority 2009, dated 2017)", "key": {"rats": {"test_system": "rats", "assay": "Fear potentiated startle (FPS) test in rats", "format": "in vivo, rat", "conditions": "i.v.; furosemide 100 mg/kg, bumetanide 70 mg/kg", "description": "FPS is a commonly used assessment of therapeutic value of anxiolytic compounds in the rat. Rats received a 30 min period of habituation to the FPS apparatus. 24-hr later baseline startle amplitudes were collected. The rats will be divided into two matched groups based on baseline startle amplitudes. Following baseline startle amplitude collection 20 light/shock pairings were delivered on 2 sessions over 2 consecutive days (i.e., 10 light/shock pairings per day). On the final day, one group of rats received an injection (i.v.) of a bumetanide analog and the other group received vehicle only. Immediately following injections, startle amplitudes were assessed during startle alone trials and startle plus fear (light followed by startle) trials. Fear potentiated startle (light+startle amplitudes minus startle alone amplitudes) was compared between the treatment groups.\nAnimals were trained and tested in four identical stabilimeter devices (Med-Associates). Briefly, each rat was placed in a small Plexiglas cylinder. The floor of each stabilimeter consists of four 6-mm-diameter stainless steel bars spaced 18 mm apart through which shock can be delivered. Cylinder movements result in displacement of an accelerometer where the resultant voltage is proportional to the velocity of the cage displacement. Startle amplitude is defined as the maximum accelerometer voltage that occurs during the first 0.25 sec after the startle stimulus is delivered. The analog output of the accelerometer is amplified, digitized on a scale of 0-4096 units and stored on a microcomputer. Each stabilimeter is enclosed in a ventilated, light-, and sound-attenuating box. All sound level measurements were made with a Precision Sound Level Meter. The noise of a ventilating fan attached to a sidewall of each wooden box produces an overall background noise level of 64 dB. The startle stimulus is a 50 ms burst of white noise (5 ms rise-decay time) generated by a white noise generator. The visual conditioned stimulus used was illumination of a light bulb adjacent to the white noise source. The unconditioned stimulus was a 0.6 mA foot shock with duration of 0.5 sec, generated by four constant-current shockers located outside the chamber. The presentation and sequencing of all stimuli were under the control of the microcomputer.\nFPS procedures consisted of 5 days of testing; during days 1 and 2 baseline startle responses were collected, days 3 and 4 light/shock pairings were delivered, day 5-testing for fear potentiated startle was conducted.\nMatching. On the first two days all rats were placed in the Plexiglas cylinders and 3 min later presented with 30 startle stimuli at a 30 sec interstimulus interval. An intensity of 105 dB was used. […]"}, "mouse [1]": {"test_system": "mouse", "conditions": "literature data; cited from earlier work"}, "in vivo": {"assay": "in vivo", "conditions": "rat"}, "mouse [2]": {"test_system": "mouse", "assay": "Formalin test (acute/early and late phase) in mice", "format": "in vivo", "description": "The formalin test was performed according to the method of Tjølsen, et al. (October 1992) “The formalin test: an evaluation of the method.” Pain 51(1): 5-17. An injection of 0.5% formalin is made into the plantar region of the right hind paw of a mouse. This elicits a distinct behavioral profile in response to the formalin injection characterized by the mouse licking the affected paw. The behavior is characteristically biphasic in nature. For example, immediately following the injection the mouse intensely licks the paw for approximately 5-10 minutes (“min.”) This initial behavior was considered phase 1 (acute) and is thought to be mediated primarily by chemical activation of local C-fibers. The acute phase is followed by a brief latent (usually <5 min) period where there is little or no behavioral activity. A more prolonged (about 20 to 30 min) period of licking then ensues which constitutes phase 2 of the response (late phase). See e.g., Tjølsen, et al. (Feb. 7, 1991) “Antinociceptive effect of paracetamol in rats is partly dependent on spinal serotonergic systems. Eur J Pharmacol. 193(2): 193-201 and Tjølsen, et al. (June 1991) Lesions of bulbo-spinal serotonergic or noradrenergic pathways reduce nociception as measured by the formalin test. Acta Physiol Scand. 142(2): 229-36, the disclosures of each of which are hereby incorporated by reference in its entirety.\nIt is in these tubes that mice are later observed for the licking activity for the duration of the experiment. Following the conditioning, the test substance was administered i.p. in a dose equivalent to the MES ED50 and the mouse returned to its home tube. At the TPE of the drug, the formalin is injected subdermally into the plantar surface of the right hind foot. It is given in a volume of 20 μl with a 27 gauge stainless steel needle attached to a Hamilton syringe. The bevel of the needle was placed facing down toward the skin surface. […] The cumulative length of licking for each 2-min time period was measured. […] Animals are euthanized following the conclusion of the experiment.\nArea under the curve (AUC) and subsequent percent of control for drug-treated animal groups is determined using the GraphPad Prism Version 3.03. Total AUC was calculated for both the test and control groups for both the acute and inflammatory phases. The AUC for individual animals for each phase was also calculated and converted to percentage of total AUC of control. The average and S.E.M. for both the drug treated and control percentages were calculated and tested for significant difference."}}}
{"smiles": "CCCCNc1cc(C(=O)O)cc(S(N)(=O)=O)c1Oc1ccccc1", "note": "[Bumetanide, reference compound]", "values": [{"measurement": "Difference score on the test day vs vehicle alone", "setting": "rats", "value": "statistically significantly lower difference score"}, {"measurement": "Difference score one week after treatment vs vehicle alone", "setting": "rats", "value": "higher difference score"}, {"measurement": "Activity in early phase formalin paw test", "setting": "mouse [1]", "value": "has little"}, {"measurement": "Activity in late phase formalin paw test", "setting": "mouse [1]", "value": "is active in late phase"}]}
{"smiles": "CCCCN(CCCC)c1cc(C(=O)O)cc(S(N)(=O)=O)c1Oc1ccccc1", "note": "[NTP-2014, 3-Aminosulfonyl-5-N,N-dibutylamino-4-phenoxybenzoic acid]", "values": [{"measurement": "NOAEL at 14 day", "setting": "in vivo", "value": 500, "unit": "mg/kg"}]}
{"smiles": "CCCCNc1cc(C(=O)NN2CCOCC2)cc(S(N)(=O)=O)c1Oc1ccccc1", "note": "[NTP-2024, N-Morpholinyl 3-Aminosulfonyl-5-N-butylamino-4-phenoxybenzamide]", "values": [{"measurement": "Decrease in pain, Formalin Paw Test (Mice) - Late Phase", "setting": "mouse [2]; 346 μmol/kg, 150 mg/kg, p < 0.01", "value": "150 mg/kg; >80%"}, {"measurement": "Decrease in pain, Formalin Paw Test (Mice) - Early Phase", "setting": "mouse [2]; 346 μmol/kg, 150 mg/kg, p < 0.05", "value": "150 mg/kg; ~40%;"}, {"measurement": "% of Control, Acute", "setting": "mouse [2]; 150 mg/kg i.p., mice", "value": 58.55, "unit": "%"}, {"measurement": "% of Control, Late Phase", "setting": "mouse [2]; 150 mg/kg i.p., mice", "value": 12.54, "unit": "%"}, {"measurement": "Treated (AUC of licking time), Acute", "setting": "mouse [2]; 150 mg/kg i.p., mice", "value": 80.03}, {"measurement": "Treated (AUC of licking time), Late Phase", "setting": "mouse [2]; 150 mg/kg i.p., mice", "value": 76.39}]}
